Counter-ions that a name gives are not always drawn.
Target: muscarinic receptors in the rat central nervous system
Test: Binding affinity at muscarinic receptors in the rat central nervous system, [^3 H]-QNB IC50
Settings: mean from one to three experiments, each in triplicate
Excerpt: Binding affinities and agonist activity in a series of
amidine derivatives at muscarinic receptors in the rat
central nervous system. Data represent the mean from one
to three experiments, each performed in triplicate.

- IC50: 50 µM
SMILES: CN(C)NC(=O)C1CN=C(N)NC1 (stereo not shown) [CDD-0126-A, 2-Amino-1,4,5,6-tetrahydropyrimidine-5-carboxylic-(N,N-dimethyl)hydrazide HCl]

— patent US5618818A, “Muscarinic agonist compounds” (The University of Toledo, priority 1996, dated 1997)
